Source: US12258574B2, “Methods and compositions for transducing lymphocytes and regulating the activity thereof” (Exuma Biotech Corp., priority 2016, dated 2025)

B1: MRB-CAR T1A: anti-Target 1 microenvironment restricted CAR; VH SEQ ID NO:281, Linker 1, VL SEQ ID NO:282; CD28 stalk/TM, ICΔ, CD3Z (protein)
chain: EVQLVQSGAEVKKPGATVKISCKVSGYSFWGATMNWIRQPPGKGLEWIGLIKPSNGGTSYNQKFKGRVTISADKSISTAYLQWSSLKASDTAMYYCAHGHYESYEAMDYWGQGTLVTVSSGGGGSGGGGSGGGGSDIQMTQSPSSLSASVGDRVTITCKASQDVVSAVAWYQQKPGQAPRLLIYWQDTRHTGVPSRFSGSGSGTEFTLTISSLQPDDFATYYCQEHFSPPLTFGQGTKVEIKFWVLVVVGGVLACYSLLVTVAFIIFWVRSKRSRLLHSDYMNMTPRRPGPTRKHYQAYAAARDFAAYRSRVKFSRSADAPAYQQGQNQLYNELNLGRREEYDVLDKRRGRDPEMGGKPRRKNPQEGLYNELQKDKMAEAYSEIGMKGERRRGKGHDGLYQGLSTATKDTYDALHMQALPPR
notes: anti-Target 1 microenvironment restricted CAR; CD28 stalk/TM, ICΔ, CD3Z

How the values were obtained:
[1] = 1.5 hours post ip administration, n=3, relative to PBS-treated mice
Text: Phenol red is a pH indicator which undergoes a pH-dependent color transition. […] A solution of phenol red has a yellow color at a pH of 6.4 or below, an orange color around pH 7.0, a red color around pH 7.4, and a purple color above pH 7.8.
The CHO xenograft tumor was excised from each mouse. The xenograft tumors were split into two halves with a scalpel and placed on a petri dish. The tumor tissue halves were then cut/sliced repeatedly using the scalpel. Water or 0.05% phenol red solution (50 mg phenol red/100 ml water) was added dropwise to each tumor half, respectively. The color was noted and images were taken of the treated tumor xenografts and of the phenol red solution remaining on the petri plate once the tumor xenograft samples were removed.

CHO-Target 1 cells = experiment: pH shift cytotoxicity assay / HCl switch RTCA killing assay (xCELLigence); type: cell-based; conditions: added about 3 hours after effector cells, E/T 1:1
Protocol: The cytotoxic activity of transduced T cells before and after pH change by addition of NaHCO3 or NaOH was measured using the xCELLigence System. Briefly, one day before the experiment, target cells (CHO cells stably transfected with a construct to express Target 1 on the cell surface (CHO-Target 1 cells)), were seeded into a 96-well E-plate (ACEA; San Diego, CA) at 10,000 cells/well with X-VIVO 15 media containing 40 mM HEPES and 40 mM PIPES, pH 6.7. Cryopreserved effector cells previously transduced with either lentiviral particles containing the nucleic acid encoding T1B or C1 (T1BVP and C1VP, respectively) produced as discussed above, were thawed and cultured for two days in X-VIVO 15 media containing 100 IU/mL of IL-2 (R&D Systems, Minneapolis, MN). On the day of the experiment, cells transduced with T1BVP or C1VP were washed and resuspended in X-VIVO 15 media containing 40 mM HEPES and 40 mM PIPES, pH 6.7 and then added into the experimental wells at effector cell/target cell ratios (E/T) of 1:1.
Impedance readings measured on the xCELLigence System (ACEA) were taken every 5 minutes and reported as the Cell Index (CI) to quantitate cell confluency as a measure of cell proliferation/cell lysis. Approximately 3 hours after effector cell addition, 8 μl of 7.5% NaHCO3 or 14 μl of 0.5 M NaOH was added into the wells with X-VIVO 15 media containing 40 mM HEPES and 40 mM PIPES, pH 6.7 to increase the pH from 6.7 to 7.4. Impedance readings were continued for approximately 20 hours after effector cell addition. Percentage of specific cytolysis was calculated as follows ((CI Target+C1VP transduced effector T cells)−(CI Target+T1BVP transduced effector T cells))/(CI Target+C1VP transduced effector T cells)×100.
The cytotoxic activity of transduced T cells before and after pH change by addition of HCl was measured using the xCELLigence System. Briefly, one day before the experiment, CHO-Target 1 cells were seeded into a 96 well E-plate at 10,000 cells/well with X-VIVO 15 media containing 40 mM HEPES and 40 mM PIPES, pH 7.4. Cryopreserved effector cells previously transduced with either C1VP or T1BVP, were thawed and cultured for two days in X-VIVO 15 media containing 100 IU/mL of IL-2. On the day of the experiment, cells transduced with T1BVP or C1VP were washed and resuspended in X-VIVO 15 media containing 40 mM HEPES and 40 mM PIPES, pH 7.4 and then added into experimental wells at effector cell/target cell ratios (E/T) of 1:1.
Impedance readings were taken every 5 minutes and reported as the Cell Index (CI). […] Impedance readings were continued for approximately 20 hours after effector cell addition. Percentage of specific cytolysis was calculated as follows ((CI Target+C1VP transduced effector T cells)−(CI Target+T1BVP transduced effector T cells))/(CI Target C1VP)×100.

[2] = tested on: cathepsin B, L, S, K, V, and D; conditions: 1 ml/mouse 1 M ip, 30 min post administration, n=3, vs PBS
Text: Fortunately, the relative protease activity of cathepsin is higher at lower pH and lower at higher pH. Therefore, the measurement of intratumoral cathepsin activity can serve as a surrogate measure of the pH of the tumor microenvironment. To measure in vivo activities of cathepsin B, L, S, K, V, and D, the near-infrared ProSense 750 FAST probe (PerkinElmer) was used.
Mice were handled in accordance with Institutional Animal Care and Use Committee approved protocols. Subcutaneous (sc) Chinese Hamster Ovary (CHO) tumor xenografts were established in the hind flank of 12-14 week old female B-NSG mice (NOD-PrkdcscidIl2rgtm1/Bcgen (Beijing Biocytogen Co. Ltd.). Briefly, cultured CHO cells (ATCC, Manassas, VA) were washed in DPBS (ThermoFisher), counted, resuspended in cold DPBS and mixed with an appropriate volume of Matrigel ECM (Corning; final concentration 5 mg/mL) at a concentration of 1.5×10^6 cells/200 μl on ice.
Animals were prepared for injection using standard approved anesthesia with hair removal (Nair) prior to injection. 200 μl of the cell suspension in ECM was injected sc into the rear flanks of the mice. Once tumors were palpable, the tumors were measured using calipers 2 times/week. Tumor volume was calculated using the following equation: (longest diameter*shortest diameter^2)/2. […]

[3] = 50-milliliter bolus; cited from earlier work
CHO-Target 1 = experiment: xCELLigence cytotoxicity of MRB-CAR T cells at pH 6.7 vs pH 7.4, CHO-Target 1; type: cell-based; conditions: E/T 3:1, 1:1, 0.3:1; about 40 hours
Protocol: The cytotoxic activity of the candidate MRB-CARs against target cells expressing either Target 1 or Target 2 (CHO-Target 1 and CHO-Target 2, respectively) was analyzed at a pH of 7.4 (normal tissue) or a pH of 6.7 (reduced pH of a tumor microenvironment) by xCELLigence System (ACEA). Briefly, target cells expressing Target 1 or Target 2 were seeded to a 96-well E-plate at 20,000 cells/well with tumor conditional or normal medium one day before the experiment. Effector cells were rested for two days in human T cell medium containing 100 IU/mL of IL-2 and added into experimental wells containing Target cells at effector cell/target cell ratios (E/T) of 3:1, 1:1, and 0.3:1.
Impedance readings were taken every 5 minutes for approximately 40 hours after effector cell addition and impedance was reported as the Cell Index (CI). Percentage of specific cytolysis was calculated as follows ((CI Target+Control virus transduced effector T cells)−(CI Target+effector T cells transduced with CARs directed to Target 1 or Target 2))/(CI Target+Control virus transduced effector T cells)×100.

| Molecule | color of phenol red indicator on excised tumor tissue [1] | effect on cytotoxic activity of MRB-CAR T cells of raising media pH from 6.7 to 7.4 (CHO-Target 1 cells) | intratumoral cathepsin activity (RFU), surrogate of tumor microenvironment pH [2] | rise of serum pH [3] | cytotoxic activity on target cells at pH 6.7 versus pH 7.4 (CHO-Target 1) |
| --- | --- | --- | --- | --- | --- |
| O=C([O-])O.[Na+] [sodium bicarbonate] | from yellow/orange to red | inhibited the cytotoxic activity | decreased cathepsin activity | approximately 0.1 pH unit | – |
| B1 | – | – | – | – | more effective at lysing target cells at a pH of 6.7 than at a pH of 7.4 |
